Measured values reported in PubChem BioAssay (NCI).
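Test compounds were applied to cells in 96-well plates for 48 hours at 5 doses. TGI is the concentration that stops growth completely.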

Legend:
Assay in all cases: growth of human tumour cells (NCI), 48 h
786-0 renal = tested on: 786-0 renal
A549 NSCLC = tested on: A549 NSCLC
ACHN renal = tested on: ACHN renal
CAKI-1 renal = tested on: CAKI-1 renal
CCRF-CEM leukemia = tested on: CCRF-CEM leukemia
COLO 205 colon = tested on: COLO 205 colon
DLD-1 colon = tested on: DLD-1 colon
DMS 114 small cell lung = tested on: DMS 114 small cell lung
HCT-116 colon = tested on: HCT-116 colon
HCT-15 colon = tested on: HCT-15 colon
HL-60(TB) leukemia = tested on: HL-60(TB) leukemia
HOP-18 NSCLC = tested on: HOP-18 NSCLC
HOP-62 NSCLC = tested on: HOP-62 NSCLC
HOP-92 NSCLC = tested on: HOP-92 NSCLC
HT29 colon = tested on: HT29 colon
IGROV1 ovarian = tested on: IGROV1 ovarian
K-562 leukemia = tested on: K-562 leukemia
KM12 colon = tested on: KM12 colon
KM20L2 colon = tested on: KM20L2 colon
LOX IMVI melanoma = tested on: LOX IMVI melanoma
LXFL 529 NSCLC = tested on: LXFL 529 NSCLC
M14 melanoma = tested on: M14 melanoma
M19-MEL melanoma = tested on: M19-MEL melanoma
MALME-3M melanoma = tested on: MALME-3M melanoma
MOLT-4 leukemia = tested on: MOLT-4 leukemia
NCI-H226 lung = tested on: NCI-H226 lung
NCI-H23 lung = tested on: NCI-H23 lung
NCI-H460 lung = tested on: NCI-H460 lung
NCI-H522 lung = tested on: NCI-H522 lung
OVCAR-3 ovarian = tested on: OVCAR-3 ovarian
OVCAR-4 ovarian = tested on: OVCAR-4 ovarian
OVCAR-5 ovarian = tested on: OVCAR-5 ovarian
OVCAR-8 ovarian = tested on: OVCAR-8 ovarian
RPMI-8226 leukemia = tested on: RPMI-8226 leukemia
RXF-631 renal = tested on: RXF-631 renal
SF-268 CNS = tested on: SF-268 CNS
SF-295 CNS = tested on: SF-295 CNS
SF-539 CNS = tested on: SF-539 CNS
SK-MEL-2 melanoma = tested on: SK-MEL-2 melanoma
SK-MEL-28 melanoma = tested on: SK-MEL-28 melanoma
SK-MEL-5 melanoma = tested on: SK-MEL-5 melanoma
SK-OV-3 ovarian = tested on: SK-OV-3 ovarian
SN12C renal = tested on: SN12C renal
SNB-19 CNS = tested on: SNB-19 CNS
SNB-75 CNS = tested on: SNB-75 CNS
SNB-78 CNS = tested on: SNB-78 CNS
SR leukemia = tested on: SR leukemia
SW-620 colon = tested on: SW-620 colon
TK-10 renal = tested on: TK-10 renal
U251 CNS = tested on: U251 CNS
UACC-257 melanoma = tested on: UACC-257 melanoma
UACC-62 melanoma = tested on: UACC-62 melanoma
UO-31 renal = tested on: UO-31 renal
A498 renal = tested on: A498 renal
EKVX NSCLC = tested on: EKVX NSCLC
HCC-2998 colon = tested on: HCC-2998 colon
RXF 393 renal = tested on: RXF 393 renal

COc1ccc(N2C(=O)/C(=C/c3ccc(N(CCC#N)CCC#N)cc3C)N=C2/C=C\c2ccccc2)cc1
TGI (786-0 renal): > 100 µM | TGI (A549 NSCLC): > 100 µM | TGI (ACHN renal): > 100 µM | TGI (CAKI-1 renal): > 100 µM | TGI (CCRF-CEM leukemia): > 100 µM | TGI (COLO 205 colon): 92 µM | TGI (DLD-1 colon): > 100 µM | TGI (DMS 114 small cell lung): > 100 µM | TGI (HCT-116 colon): > 100 µM | TGI (HCT-15 colon): > 100 µM | TGI (HL-60(TB) leukemia): > 100 µM | TGI (HOP-18 NSCLC): > 100 µM | TGI (HOP-62 NSCLC): 69.6 µM | TGI (HOP-92 NSCLC): > 100 µM | TGI (HT29 colon): > 100 µM | TGI (IGROV1 ovarian): > 100 µM | TGI (K-562 leukemia): > 100 µM | TGI (KM12 colon): > 100 µM | TGI (KM20L2 colon): 40 µM | TGI (LOX IMVI melanoma): > 100 µM | TGI (LXFL 529 NSCLC): > 100 µM | TGI (M14 melanoma): > 100 µM | TGI (M19-MEL melanoma): > 100 µM | TGI (MALME-3M melanoma): > 100 µM | TGI (MOLT-4 leukemia): > 100 µM | TGI (NCI-H226 lung): > 100 µM | TGI (NCI-H23 lung): > 100 µM | TGI (NCI-H460 lung): > 100 µM | TGI (NCI-H522 lung): > 100 µM | TGI (OVCAR-3 ovarian): > 100 µM | TGI (OVCAR-4 ovarian): > 100 µM | TGI (OVCAR-5 ovarian): > 100 µM | TGI (OVCAR-8 ovarian): > 100 µM | TGI (RPMI-8226 leukemia): > 100 µM | TGI (RXF-631 renal): > 100 µM | TGI (SF-268 CNS): > 100 µM | TGI (SF-295 CNS): > 100 µM | TGI (SF-539 CNS): 56.9 µM | TGI (SK-MEL-2 melanoma): > 100 µM | TGI (SK-MEL-28 melanoma): > 100 µM | TGI (SK-MEL-5 melanoma): > 100 µM | TGI (SK-OV-3 ovarian): > 100 µM | TGI (SN12C renal): > 100 µM | TGI (SNB-19 CNS): > 100 µM | TGI (SNB-75 CNS): > 100 µM | TGI (SNB-78 CNS): > 100 µM | TGI (SR leukemia): > 100 µM | TGI (SW-620 colon): > 100 µM | TGI (TK-10 renal): > 100 µM | TGI (U251 CNS): > 100 µM | TGI (UACC-257 melanoma): > 100 µM | TGI (UACC-62 melanoma): 60.7 µM | TGI (UO-31 renal): 75 µM

Cc1ccc(N=Nc2c(C)nn(-c3ccccc3)c2-c2ccccc2)c(Br)c1
TGI (786-0 renal): > 100 µM | TGI (A498 renal): > 100 µM | TGI (A549 NSCLC): > 100 µM | TGI (ACHN renal): > 100 µM | TGI (CAKI-1 renal): > 100 µM | TGI (CCRF-CEM leukemia): > 100 µM | TGI (DLD-1 colon): > 100 µM | TGI (EKVX NSCLC): > 100 µM | TGI (HCC-2998 colon): > 100 µM | TGI (HCT-116 colon): > 100 µM | TGI (HCT-15 colon): > 100 µM | TGI (HL-60(TB) leukemia): > 100 µM | TGI (HOP-18 NSCLC): > 100 µM | TGI (HOP-62 NSCLC): > 100 µM | TGI (HOP-92 NSCLC): > 100 µM | TGI (HT29 colon): > 100 µM | TGI (IGROV1 ovarian): > 100 µM | TGI (K-562 leukemia): > 100 µM | TGI (KM12 colon): > 100 µM | TGI (KM20L2 colon): > 100 µM | TGI (LOX IMVI melanoma): > 100 µM | TGI (LXFL 529 NSCLC): > 100 µM | TGI (M14 melanoma): > 100 µM | TGI (M19-MEL melanoma): > 100 µM | TGI (MALME-3M melanoma): > 100 µM | TGI (MOLT-4 leukemia): > 100 µM | TGI (NCI-H226 lung): > 100 µM | TGI (NCI-H460 lung): > 100 µM | TGI (NCI-H522 lung): > 100 µM | TGI (OVCAR-3 ovarian): > 100 µM | TGI (OVCAR-4 ovarian): > 100 µM | TGI (OVCAR-8 ovarian): > 100 µM | TGI (RXF-631 renal): > 100 µM | TGI (SF-268 CNS): > 100 µM | TGI (SF-295 CNS): > 100 µM | TGI (SF-539 CNS): > 100 µM | TGI (SK-MEL-2 melanoma): > 100 µM | TGI (SK-MEL-28 melanoma): > 100 µM | TGI (SK-OV-3 ovarian): > 100 µM | TGI (SN12C renal): > 100 µM | TGI (SNB-19 CNS): > 100 µM | TGI (SNB-75 CNS): > 100 µM | TGI (SR leukemia): > 100 µM | TGI (SW-620 colon): > 100 µM | TGI (TK-10 renal): > 100 µM | TGI (UACC-257 melanoma): > 100 µM | TGI (UACC-62 melanoma): > 100 µM | TGI (UO-31 renal): > 100 µM

CCc1ccccc1NC(=O)C1=C(C)NC(C)=C(C(=O)Nc2ccccc2CC)C1c1cccc([N+](=O)[O-])c1
TGI (786-0 renal): > 100 µM | TGI (A498 renal): 93.8 µM | TGI (A549 NSCLC): > 100 µM | TGI (ACHN renal): > 100 µM | TGI (CAKI-1 renal): > 100 µM | TGI (CCRF-CEM leukemia): > 100 µM | TGI (COLO 205 colon): > 100 µM | TGI (DLD-1 colon): > 100 µM | TGI (DMS 114 small cell lung): > 100 µM | TGI (EKVX NSCLC): > 100 µM | TGI (HCC-2998 colon): 62 µM | TGI (HL-60(TB) leukemia): 88.7 µM | TGI (HOP-62 NSCLC): > 100 µM | TGI (HOP-92 NSCLC): 62.8 µM | TGI (HT29 colon): > 100 µM | TGI (IGROV1 ovarian): > 100 µM | TGI (K-562 leukemia): > 100 µM | TGI (KM12 colon): > 100 µM | TGI (KM20L2 colon): > 100 µM | TGI (LOX IMVI melanoma): > 100 µM | TGI (LXFL 529 NSCLC): > 100 µM | TGI (M14 melanoma): > 100 µM | TGI (M19-MEL melanoma): > 100 µM | TGI (MALME-3M melanoma): > 100 µM | TGI (MOLT-4 leukemia): > 100 µM | TGI (NCI-H226 lung): > 100 µM | TGI (NCI-H23 lung): > 100 µM | TGI (NCI-H460 lung): > 100 µM | TGI (NCI-H522 lung): 97.8 µM | TGI (OVCAR-3 ovarian): > 100 µM | TGI (OVCAR-4 ovarian): > 100 µM | TGI (OVCAR-5 ovarian): > 100 µM | TGI (OVCAR-8 ovarian): > 100 µM | TGI (RPMI-8226 leukemia): > 100 µM | TGI (RXF 393 renal): > 100 µM | TGI (RXF-631 renal): > 100 µM | TGI (SF-268 CNS): > 100 µM | TGI (SF-295 CNS): > 100 µM | TGI (SF-539 CNS): > 100 µM | TGI (SK-MEL-2 melanoma): > 100 µM | TGI (SK-MEL-28 melanoma): > 100 µM | TGI (SK-MEL-5 melanoma): > 100 µM | TGI (SK-OV-3 ovarian): > 100 µM | TGI (SN12C renal): > 100 µM | TGI (SNB-19 CNS): > 100 µM | TGI (SNB-75 CNS): > 100 µM | TGI (SNB-78 CNS): > 100 µM | TGI (SW-620 colon): > 100 µM | TGI (TK-10 renal): > 100 µM | TGI (U251 CNS): > 100 µM | TGI (UACC-257 melanoma): > 100 µM | TGI (UO-31 renal): > 100 µM
